In patent US20260265271A1, “Cereblon Ligands and Uses Thereof” (REGENTS OF THE UNIVERSITY OF MICHIGAN, priority 2022, published 2026):
Structures can show the parent of a compound that is named as a salt.

The compounds below were run against T1, IKZF2 (Homo sapiens, UniProt Q96SW2+Q9UKS7) (assay: IKZF2 HiBiT degradation assay (Jurkat-IKZF2-HiBiT)). Conditions: read-out: IKZF2 degradation DC50; Jurkat-IKZF2-HiBiT cells, 24 hours.
T1 construct: host or cells: Jurkat-IKZF2-HiBiT
T1 sequence (Q9UKS7 whole entry): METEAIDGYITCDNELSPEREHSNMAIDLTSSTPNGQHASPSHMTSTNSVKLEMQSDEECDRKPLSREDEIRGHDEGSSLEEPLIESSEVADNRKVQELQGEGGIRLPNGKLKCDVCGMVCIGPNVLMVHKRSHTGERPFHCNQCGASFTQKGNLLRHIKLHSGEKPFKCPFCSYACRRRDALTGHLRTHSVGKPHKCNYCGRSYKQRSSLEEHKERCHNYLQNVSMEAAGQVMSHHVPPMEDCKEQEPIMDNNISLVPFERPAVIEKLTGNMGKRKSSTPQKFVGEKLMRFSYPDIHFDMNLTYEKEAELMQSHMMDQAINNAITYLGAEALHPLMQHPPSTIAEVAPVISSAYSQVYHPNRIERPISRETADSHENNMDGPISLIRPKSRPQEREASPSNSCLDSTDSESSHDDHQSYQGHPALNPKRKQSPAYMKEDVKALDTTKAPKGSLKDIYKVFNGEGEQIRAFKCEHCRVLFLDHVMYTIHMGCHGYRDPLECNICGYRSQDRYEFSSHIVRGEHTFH
T1 sequence (Q96SW2 whole entry): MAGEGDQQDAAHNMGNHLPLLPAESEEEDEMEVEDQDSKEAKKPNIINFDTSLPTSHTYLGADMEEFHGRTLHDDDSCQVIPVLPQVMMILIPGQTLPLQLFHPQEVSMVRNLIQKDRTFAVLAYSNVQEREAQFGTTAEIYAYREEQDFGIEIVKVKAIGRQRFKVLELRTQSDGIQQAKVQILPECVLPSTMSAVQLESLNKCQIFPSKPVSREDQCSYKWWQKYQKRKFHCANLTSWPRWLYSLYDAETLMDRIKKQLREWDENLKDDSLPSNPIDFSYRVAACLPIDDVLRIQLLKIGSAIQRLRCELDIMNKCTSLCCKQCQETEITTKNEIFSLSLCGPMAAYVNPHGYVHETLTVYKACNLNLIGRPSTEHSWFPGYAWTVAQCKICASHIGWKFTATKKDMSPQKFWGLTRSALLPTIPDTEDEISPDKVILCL
T1 sequence (Q16531 2-1140 partner limits assumed): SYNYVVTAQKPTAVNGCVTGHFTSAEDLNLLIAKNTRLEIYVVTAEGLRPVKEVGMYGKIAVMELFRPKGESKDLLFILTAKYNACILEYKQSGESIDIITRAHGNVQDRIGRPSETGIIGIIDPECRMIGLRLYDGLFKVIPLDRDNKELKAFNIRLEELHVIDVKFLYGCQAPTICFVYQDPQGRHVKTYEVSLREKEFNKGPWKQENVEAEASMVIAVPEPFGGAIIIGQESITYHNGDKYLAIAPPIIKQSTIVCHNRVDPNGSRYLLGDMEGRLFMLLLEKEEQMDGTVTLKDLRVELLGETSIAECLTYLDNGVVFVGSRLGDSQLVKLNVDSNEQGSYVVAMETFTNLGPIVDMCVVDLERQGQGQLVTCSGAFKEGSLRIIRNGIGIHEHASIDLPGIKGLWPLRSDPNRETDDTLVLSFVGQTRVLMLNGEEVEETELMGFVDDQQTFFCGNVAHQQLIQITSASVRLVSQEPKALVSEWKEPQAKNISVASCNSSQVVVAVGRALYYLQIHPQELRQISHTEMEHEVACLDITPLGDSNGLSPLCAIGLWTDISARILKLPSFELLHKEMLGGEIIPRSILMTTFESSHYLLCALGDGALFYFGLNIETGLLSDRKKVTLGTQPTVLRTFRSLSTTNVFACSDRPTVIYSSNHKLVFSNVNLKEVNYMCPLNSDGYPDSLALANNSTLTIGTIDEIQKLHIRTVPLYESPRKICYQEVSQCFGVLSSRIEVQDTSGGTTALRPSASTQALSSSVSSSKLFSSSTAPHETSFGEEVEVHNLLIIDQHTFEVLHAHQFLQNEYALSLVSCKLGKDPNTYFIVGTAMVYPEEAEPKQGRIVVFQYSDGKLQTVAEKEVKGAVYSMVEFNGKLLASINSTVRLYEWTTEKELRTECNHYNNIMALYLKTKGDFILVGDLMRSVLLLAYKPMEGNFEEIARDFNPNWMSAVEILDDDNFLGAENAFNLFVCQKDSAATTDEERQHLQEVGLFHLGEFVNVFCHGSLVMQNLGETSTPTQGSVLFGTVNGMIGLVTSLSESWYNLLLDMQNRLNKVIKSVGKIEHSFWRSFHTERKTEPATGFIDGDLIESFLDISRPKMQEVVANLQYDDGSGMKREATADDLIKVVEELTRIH
Type: cell-based
Experimental: Degradation of IKZF2 protein was determined by IKZF2 HiBiT assay using the Jurkat-IKZF2-HiBiT (Promega) cell line. […] Compounds were serially diluted in culture medium, and 20 μl of the diluted compounds were added to the appropriate wells of the plate. After the addition of compounds, the cells were incubated at 37° C. in an atmosphere of 5% CO2 for 24 hours. At the end of treatment, 40 ul of Nano-Glo HiBiT Lytic Detection Reagent (Promega) was added to each well, and then the plates were incubated at room temperature for 10-20 minutes. The luminescent signal was measured using a CALRIOstar plate reader (BMG Labtech). The readings were normalized to the DMSO-treated cells and the IC50 was calculated by nonlinear regression (four parameters sigmoid fitted with variable slope, least squares fit, and no constraint) analysis using the GraphPad Prism 8 software.
O=C1CC[C@H](N2Cc3cc4c(cc3C2=O)OC[C@@H]2CN(CC3CCCC3)CCN42)C(=O)N1 [Compound C29, (S)-3-((S)-3-(cyclopentylmethyl)-8-oxo-1,2,3,4a,5,8,10-octahydro-9H-pyrazino[1′,2′:4,5][1,4]oxazino[2,3-f]isoindol-9-yl)piperidine-2,6-dione] showed a DC50 of 402 nM.
In the case of O=C1CC[C@H](N2Cc3cc4c(cc3C2=O)OC[C@@H]2CN(CC3CCC5(CC3)COC5)CCN42)C(=O)N1 [Compound C35, (S)-3-((S)-3-((2-oxaspiro[3.5]nonan-7-yl)methyl)-8-oxo-1,2,3,4,4a,5,8,10-octahydro-9H-pyrazino[1′,2′:4,5][1,4]oxazino[2,3-f]isoindol-9-yl)piperidine-2,6-dione], the DC50 is reported as 933 nM.
With O=C1CC[C@H](N2Cc3cc4c(cc3C2=O)OC[C@@H]2CN(Cc3cccc(NS(=O)(=O)c5ccccc5)c3)CCN42)C(=O)N1 [Compound C28, N-(3-(((S)-9-((S)-2,6-dioxopiperidin-3-yl)-8-oxo-1,2,4a,5,9,10-hexahydro-8H-pyrazino[1′,2′:4,5][1,4]oxazino[2,3-f]isoindol-3(4H)-yl)methyl)phenyl)benzenesulfonamide] the DC50 was > 1000 nM.
For O=C1CCC(N2Cc3cc4c(cc3C2=O)OC[C@@H]2CN(Cc3ccccc3)CCN42)C(=O)N1 (stereo partly drawn) [Compound C1, 3-((S)-3-benzyl-8-oxo-1,2,3,4,4a,5,8,10-octahydro-9H-pyrazino[1′,2′:4,5][1,4]oxazino[2,3-f]isoindol-9-yl)piperidine-2,6-dione], the DC50 was > 2000 nM.

Same assay, conditions: read-out: IKZF2 degradation Dmax (%)
Work on O=C1CC[C@H](N2Cc3cc4c(cc3C2=O)OC[C@@H]2CN(CC3CCCC3)CCN42)C(=O)N1 [Compound C29, (S)-3-((S)-3-(cyclopentylmethyl)-8-oxo-1,2,3,4a,5,8,10-octahydro-9H-pyrazino[1′,2′:4,5][1,4]oxazino[2,3-f]isoindol-9-yl)piperidine-2,6-dione] yielded a Dmax of 61%.
With O=C1CC[C@H](N2Cc3cc4c(cc3C2=O)OC[C@@H]2CN(CC3CCC5(CC3)COC5)CCN42)C(=O)N1 [Compound C35, (S)-3-((S)-3-((2-oxaspiro[3.5]nonan-7-yl)methyl)-8-oxo-1,2,3,4,4a,5,8,10-octahydro-9H-pyrazino[1′,2′:4,5][1,4]oxazino[2,3-f]isoindol-9-yl)piperidine-2,6-dione] the Dmax was 66%.
O=C1CC[C@H](N2Cc3cc4c(cc3C2=O)OC[C@@H]2CN(Cc3cccc(NS(=O)(=O)c5ccccc5)c3)CCN42)C(=O)N1 [Compound C28, N-(3-(((S)-9-((S)-2,6-dioxopiperidin-3-yl)-8-oxo-1,2,4a,5,9,10-hexahydro-8H-pyrazino[1′,2′:4,5][1,4]oxazino[2,3-f]isoindol-3(4H)-yl)methyl)phenyl)benzenesulfonamide] gave a Dmax of 11%.
Work on O=C1CCC(N2Cc3cc4c(cc3C2=O)OC[C@@H]2CN(Cc3ccccc3)CCN42)C(=O)N1 (stereo partly drawn) [Compound C1, 3-((S)-3-benzyl-8-oxo-1,2,3,4,4a,5,8,10-octahydro-9H-pyrazino[1′,2′:4,5][1,4]oxazino[2,3-f]isoindol-9-yl)piperidine-2,6-dione] yielded a Dmax of 27%.

What follows are compounds tested against wild-type human CRBN protein (Homo sapiens, UniProt Q96SW2) (assay: biochemical). Conditions: not given.
Sequence of wild-type human CRBN protein (Q96SW2 whole entry): as the sequence (Q96SW2 whole entry) above
Work on O=C1CC[C@H](NC(=O)c2ccc3c(c2)OC[C@@H]2CNCCN32)C(=O)N1 [Compound B23, (S)—N—((S)-2,6-dioxopiperidin-3-yl)-1,2,3,4,4a,5-hexahydrobenzo[b]pyrazino[1,2-d][1,4]oxazine-8-carboxamide] yielded an IC50 of 25000 nM.
CC(=O)N1CCN2c3ccc4c(c3OC[C@@H]2C1)CN([C@H]1CCC(=O)NC1=O)C4=O [Compound C10, (S)-3-((S)-7-acetyl-1-oxo-1,3,5,5a,6,7,8,9-octahydro-2H-pyrazino[1′,2′:4,5][1,4]oxazino[2,3-e]isoindol-2-yl)piperidine-2,6-dione] was tested, and the IC50 was 200 nM.
CC(C)(C)OC(=O)N1CCN2c3cc4c(cc3OC[C@@H]2C1)C(=O)N([C@@H]1CCC(=O)NC1=O)C4 [Compound B4, (R)-tert-butyl (4aS)-9-(2,6-dioxopiperidin-3-yl)-8-oxo-1,2,4a,5,9,10-hexahydro-8H-pyrazino[1′,2′:4,5][1,4]oxazino[2,3-f]isoindole-3(4H)-carboxylate] gave an IC50 of 3500 nM.
Work on O=C1CC[C@H](N2Cc3c(ccc4c3OC[C@@H]3CN(Cc5ccc(F)cc5Cl)CCN43)C2=O)C(=O)N1 [Compound C13, (S)-3-((S)-7-(2-chloro-4-fluorobenzyl)-1-oxo-1,3,5,5a,6,7,8,9-octahydro-2H-pyrazino[1′,2′:4,5][1,4]oxazino[2,3-e]isoindol-2-yl)piperidine-2,6-dione] yielded an IC50 of 90 nM.
O=C1CC[C@H](N2Cc3c(ccc4c3OC[C@@H]3CN(Cc5ccc(F)c(F)c5)CCN43)C2=O)C(=O)N1 [Compound C12, (S)-3-((S)-7-(3,4-difluorobenzyl)-1-oxo-1,3,5,5a,6,7,8,9-octahydro-2H-pyrazino[1′,2′:4,5][1,4]oxazino[2,3-e]isoindol-2-yl)piperidine-2,6-dione] was tested, and the IC50 was 240 nM.
CN1CCN2c3cc4c(cc3N(C)C[C@@H]2C1)C(=O)N(C1CCC(=O)NC1=O)C4 (stereo partly drawn) [Compound B8, 3-((S)-3,6-dimethyl-8-oxo-2,3,4,4a,5,6,8,10-octahydropyrazino[1,2-a]pyrrolo[3,4-g]quinoxalin-9(1H)-yl)piperidine-2,6-dione] showed an IC50 of 940 nM.
With O=C1CC[C@H](N2Cc3c(ccc4c3OC[C@@H]3CN(Cc5ccc(C(F)F)cc5)CCN43)C2=O)C(=O)N1 [Compound C11, (S)-3-((S)-7-(4-(difluoromethyl)benzyl)-1-oxo-1,3,5,5a,6,7,8,9-octahydro-2H-pyrazino[1′,2′:4,5][1,4]oxazino[2,3-e]isoindol-2-yl)piperidine-2,6-dione] the IC50 was 90 nM.
CN1C[C@@H]2CNCCN2c2cc3c(cc21)C(=O)N(C1CCC(=O)NC1=O)C3 (stereo partly drawn) [Compound B7, 3-((S)-6-methyl-8-oxo-2,3,4,4a,5,6,8,10-octahydropyrazino[1,2-a]pyrrolo[3,4-g]quinoxalin-9(1H)-yl)piperidine-2,6-dione trifluoroacetate salt] was tested, and the IC50 was 740 nM.
Work on CN(C(=O)c1ccc2c(n1)OC[C@H]1CNCCN21)C1CCC(=O)NC1=O (stereo partly drawn) [Compound B20, (4aR)-N-(2,6-dioxopiperidin-3-yl)-N-methyl-1,2,3,4,4a,5-hexahydropyrazino[1,2-d]pyrido[2,3-b][1,4]oxazine-8-carboxamide] yielded an IC50 of 17500 nM.
In the case of CN(C(=O)c1ccc2c(c1)OC[C@@H]1CNCCN21)C1CCC(=O)NC1=O (stereo partly drawn) [Compound B24, (4aS)—N-(2,6-dioxopiperidin-3-yl)-N-methyl-1,2,3,4,4a,5-hexahydrobenzo[b]pyrazino[1,2-d][1,4]oxazine-8-carboxamide], the IC50 is reported as 3400 nM.
CN1CCN2c3ccc4c(c3N(C)C[C@@H]2C1)CN(C1CCC(=O)NC1=O)C4=O (stereo partly drawn) [Compound B12, 3-((S)-4,7-dimethyl-1-oxo-3,4,5,5a,6,7,8,9-octahydropyrazino[1,2-a]pyrrolo[3,4-f]quinoxalin-2(1H)-yl)piperidine-2,6-dione] was tested, and the IC50 was 580 nM.
O=C1CC[C@H](NC(=O)c2ccc3c(n2)OC[C@H]2CNCCN32)C(=O)N1 [Compound B19, (R)-N-((S)-2,6-dioxopiperidin-3-yl)-1,2,3,4,4a,5-hexahydropyrazino[1,2-d]pyrido [2,3-b][1,4]oxazine-8-carboxamide] was tested, and the IC50 was 30200 nM.
With CN1CCN2c3cc4c(cc3NC(=O)[C@@H]2C1)C(=O)N(C1CCC(=O)NC1=O)C4 (stereo partly drawn) [Compound B10, (4aS)-9-(2,6-dioxopiperidin-3-yl)-3-methyl-2,3,4,4a,9,10-hexahydropyrazino[1,2-a]pyrrolo[3,4-g]quinoxaline-5,8(1H,6H)-dione] the IC50 was 600 nM.
O=C1CCC(N2Cc3cc4c(cc3C2=O)OC[C@H]2CNCCN42)C(=O)N1 (stereo partly drawn) [Compound B6, 3-((R)-8-oxo-1,2,3,4,4a,5,8,10-octahydro-9H-pyrazino[1′,2′:4,5][1,4]oxazino[2,3-f]isoindol-9-yl)piperidine-2,6-dione trifluoroacetate salt] showed an IC50 of 3100 nM.
In the case of N[C@H]1C[C@H]2COc3cc4c(cc3N2C1)CN([C@H]1CCC(=O)NC1=O)C4=O [Compound B17, (S)-3-((2S,3aS)-2-amino-7-oxo-2,3,3a,4,7,9-hexahydro-1H,8H-pyrrolo[1′,2′:4,5][1,4]oxazino[2,3-f]isoindol-8-yl)piperidine-2,6-dione], the IC50 is reported as 130 nM.
Compound CC(=O)N1CCN2c3ccc4c(c3OC[C@H]2C1)CN([C@H]1CCC(=O)NC1=O)C4=O [Compound C9, (S)-3-((R)-7-acetyl-1-oxo-1,3,5,5a,6,7,8,9-octahydro-2H-pyrazino[1′,2′:4,5][1,4]oxazino[2,3-e]isoindol-2-yl)piperidine-2,6-dione] has an IC50 of 180 nM.
Compound N[C@H]1C[C@H]2COc3cc4c(cc3N2C1)C(=O)N(C1CCC(=O)NC1=O)C4=O (some centres unmarked) [Compound B18] has an IC50 of 220 nM.
CCN1CCN2c3ccc4c(c3OC[C@H]2C1)CN([C@H]1CCC(=O)NC1=O)C4=O [Compound C8, (S)-3-((R)-7-ethyl-1-oxo-1,3,5,5a,6,7,8,9-octahydro-2H-pyrazino[1′,2′:4,5][1,4]oxazino[2,3-e]isoindol-2-yl)piperidine-2,6-dione] showed an IC50 of 470 nM.
